Data published in patent US20260159534A1, “NOVEL CRYSTAL FORMS OF PEPTIDE BORIC ACID COMPOUND AND PREPARATION METHODS THEREFOR” (JIANGSU CHUANGTE PHARMACEUTICAL TECHNOLOGY CO., LTD., priority 2021, published 2026).
In brackets after ≈: the same amount, converted by molar mass.

What was measured:
Type in all cases: physicochemical
[1] = Hygroscopicity test (dynamic vapor sorption); details: 25° C.; for Hygroscopicity / Hygroscopicity comparison (in words): 0-80% RH; for Weight change in the range of 0% RH to 80% RH: dynamic vapor sorption
Experimental: Four crystal samples produced, namely the eutectic sample and the crystal form A sample of Example 1, the crystal form B sample of Example 2, and the crystal form D sample of Example 3, were subjected to hygroscopicity tests at 25° C. under a changing relative humidity of 0-80% RH.

[2] = Stability influence factor tests (high temperature, high humidity, illumination); details: for Stability during the 10 days of examination (in words): high temperature, high humidity, illumination
Experimental: Four crystal samples produced, namely the eutectic sample and the crystal form A sample of Example 1, the crystal form B sample of Example 2, and the crystal form D sample of Example 3, were each subjected the stability influence factor tests under high temperature (60° C., in the dark), high humidity (relative humidity of 90%[…], in the dark), and illumination (4500 lx±500 lx), and sampling was carried out to on day 0, day 5 day, and day 10 for […] determination, and the results are shown in Table 4 below.

[3] = Kinetic solubility determination in ultra-pure water; details: upper limit 1000 μg/mL
From the text: (§1) Four crystal samples produced, namely the eutectic sample and the crystal form A sample of Example 1, the crystal form B sample of Example 2, and the crystal form D sample of Example 3, were subjected to solubility tests and a kinetic solubility determination tests in ultra-pure water, and the solubility results are shown in Tables 1 and 2.

[4] = Solubility test in ultra-pure water; details: for Solubility property (in words): solubility and kinetic solubility; for Solubility: upper limit 300 μg/mL
From the text: as §1

[5] = 5 d, high humidity (relative humidity of 90%±50, in the dark)
[6] = 5 d, high temperature (60° C., in the dark)
[7] = 5 d, illumination (4500 lx±500 lx)
[8] = 10 d, high humidity (relative humidity of 90%±50, in the dark)
[9] = 10 d, high temperature (60° C., in the dark)
[10] = 10 d, illumination (4500 lx±500 lx)

Compound	Hygroscopicity [1]	Weight change in the range of 0% RH to 80% RH [1]	Stability results (content) ([2]; 0 h)	Stability results (content) [2, 5]	Stability results (content) [2, 6]	Stability results (content) [2, 7]	Stability results (content) [2, 8]	Stability results (content) [2, 9]	Stability results (content) [2, 10]	Stability during the 10 days of examination (in words) [2]	Kinetic solubility [3]	Solubility property (in words) [4]	Solubility [4]	Hygroscopicity comparison (in words) [1]
CSC[C@H](NC(=O)c1cc(Cl)ccc1Cl)C(=O)N[C@@H](CC(C)C)B1OCCNCCO1 [Crystal form D of Example 3, N—((R)-1-(((R)-1-(1,3,6,2-dioxazaborolan-2-yl)-3-methylbutyl)amino)-3-(methylthio)-1-oxoprop-2-yl)-2,5-dichlorobenzamide]	Deliquescent	2.4%	98.05%	97.88%	97.68%	98.07%	98.39%	98.52%	98.49%	no significant content change	902.91 µg/mL	excellent solubility property	304.21 µg/mL (≈ 621 µM)	
CSC[C@H](NC(=O)c1cc(Cl)ccc1Cl)C(=O)N[C@@H](CC(C)C)B1OCCNCCO1 [Crystal form A of Example 1, N—((R)-1-(((R)-1-(1,3,6,2-dioxazaborolan-2-yl)-3-methylbutyl)amino)-3-(methylthio)-1-oxoprop-2-yl)-2,5-dichlorobenzamide]		1.4%	99.01%	99.24%	98.97%	98.61%	99.23%	99.22%	98.90%	no significant content change	958.47 µg/mL	excellent solubility property	318.09 µg/mL (≈ 649 µM)	weaker hygroscopicity compared with the crystal form D
N—((R)-1-(((R)-1-(1,3,6,2-dioxazaborolan-2-yl)-3-methylbutyl)amino)-3-(methylthio)-1-oxoprop-2-yl)-2,5-dichlorobenzamide [White eutectic solid of Example 1]	Deliquescent	2.1%	98.10%				93.18%	97.49%	98.06%	unstable	948.16 µg/mL	excellent solubility property	310.12 µg/mL	
CSC[C@H](NC(=O)c1cc(Cl)ccc1Cl)C(=O)N[C@@H](CC(C)C)B1OCCNCCO1 [Crystal form B of Example 2, N—((R)-1-(((R)-1-(1,3,6,2-dioxazaborolan-2-yl)-3-methylbutyl)amino)-3-(methylthio)-1-oxoprop-2-yl)-2,5-dichlorobenzamide]	Nonhygroscopic	Less than 0.2%	99.16%	98.41%	98.92%	99.22%	99.08%	99.25%	99.11%	no significant content change	1078.59 µg/mL	excellent solubility property	302.80 µg/mL (≈ 618 µM)	weaker hygroscopicity compared with the crystal form D
